The values that follow come from patent US6969730B2, “Amines as histamine-3 receptor ligands and their therapeutic applications” (Abbott Laboratories, priority 2001, dated 2005).

The structures appear in SMILES notation. pKi: −log10 of the molar value.

The target in the assay is T1, histamine-3 receptors (H3 receptor) (Rattus norvegicus, UniProt Q9QYN8).
T1 construct: from tissue; host or cells: male Sprague-Dawley rat brain cortex membranes
T1 sequence (Q9QYN8 whole entry): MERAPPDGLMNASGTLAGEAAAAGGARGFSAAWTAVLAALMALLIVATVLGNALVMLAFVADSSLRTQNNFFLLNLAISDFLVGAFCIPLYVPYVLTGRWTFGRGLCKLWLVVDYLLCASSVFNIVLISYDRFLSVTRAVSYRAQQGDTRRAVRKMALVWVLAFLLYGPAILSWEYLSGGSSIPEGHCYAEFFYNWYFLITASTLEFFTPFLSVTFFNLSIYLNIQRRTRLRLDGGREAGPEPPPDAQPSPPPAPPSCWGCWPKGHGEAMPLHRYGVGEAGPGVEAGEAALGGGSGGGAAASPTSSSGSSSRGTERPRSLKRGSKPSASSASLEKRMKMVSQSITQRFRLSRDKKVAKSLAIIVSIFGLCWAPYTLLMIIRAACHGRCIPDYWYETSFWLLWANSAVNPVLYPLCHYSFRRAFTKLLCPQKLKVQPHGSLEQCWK
As to the kind of experiment: (3H)-N-α-methylhistamine binding to rat cortical membranes (histamine-3 receptor ligands). The note with it: male Sprague-Dawley rat brain cortical membranes; (3H)-N-α-methylhistamine ~0.6 nM; 30 minutes at 25° C.; Cheng-Prusoff. The method, then: Briefly, male Sprague-Dawley rat brain cortices were homogenized (1 g tissue/10 mL buffer) in 50 mM Tris-HCl/5 mM EDTA containing protease inhibitor cocktail (Calbiochem) using a polytron set at 20,500 rpm. Homogenates were centrifuged for 20 minutes at 40,000×g. The supernatant was decanted, and pellets were weighed. The pellet was resuspended by polytron homogenization in 40 mL 50 mM Tris-HCl/5 mM EDTA with protease inhibitors and centrifuged for 20 minutes at 40,000×g. […] Rat cortical membranes (12 mg wet weight/tube) were incubated with (^3H)-N-α-methylhistamine (˜0.6 nM) with or without H3 receptor antagonists in a total incubation volume of 0.5 mL of 50 mM Tris-HCl/5 mM EDTA (pH 7.7). Test compounds were dissolved in DSMO to provide a 20 mM solution, serially diluted and then added to the incubation mixture prior to initiating the incubation assay by addition of the membranes. Thioperamide (3 μM) was used to determine nonspecific binding. Binding incubations were conducted for 30 minutes at 25° C. and terminated by addition of 2 mL of ice cold 50 mM Tris-HCl (pH 7.7) and filtration through 0.3% polyethylenimine-soaked Unifilter plates (Packard). These filters were washed 4 additional times with 2 mL of ice-cold 50 mM Tris-HCl and dried for 1 hour. Radioactivity was determined using liquid scintillation counting techniques. Results were analyzed by Hill transformation and Ki values were determined using the Cheng-Prusoff equation.
Consider `Cc1cc(-c2ccc(C#N)cc2)cc2cc(CCN3CCC[C@H]3C)oc12` [Example 109, 4-(7-methyl-2-{2-[(2R)-2-methyl-1-pyrrolidinyl]ethyl}-1-benzofuran-5-yl)benzonitrile], for which the pKi is 8.00. For the compound `C[C@@H]1CCCN1CCc1cc2cc(-c3ccc(C#N)cc3)cc(F)c2o1` [Example 110, 4-(7-fluoro-2-{2-[(2R)-2-methyl-1-pyrrolidinyl]ethyl}-1-benzofuran-5-yl)benzonitrile], the negative-log Ki (pKi) was 8.22. In the case of `C[C@@H]1CCCN1CCc1cc2cc(-c3ccc(C#N)c(F)c3)ccc2o1` [Example 111, 2-fluoro-4-(2-{2-[(2R)-2-methyl-1-pyrrolidinyl]ethyl}-1-benzofuran-5-yl)benzonitrile] it was 8.05; in that of `C[C@@H]1CCCN1CCc1cc2cc(-c3cccc(C#N)c3)ccc2o1` [Example 112, 3-(2-{2-[(2R)-2-methyl-1-pyrrolidinyl]ethyl}-1-benzofuran-5-yl)benzonitrile], 8.52.

As to `C[C@@H]1CCCN1CCc1cc2cc(-c3ccc(F)cc3)ccc2o1` [Example 113, (2R)-1-{2-[5-(4-fluorophenyl)-1-benzofuran-2-yl]ethyl}-2-methylpyrrolidine], the pKi is 7.11.

The compound `C[C@@H]1CCCN1CCc1cc2cc(-c3ccc(Cl)c(Cl)c3)ccc2o1` [Example 114, (2R)-1-{2-[5-(3,4-dichlorophenyl)-1-benzofuran-2-yl]ethyl}-2-methylpyrrolidine] gave a pKi of 7.01. In the case of `Cc1ccccc1-c1ccc2oc(CCN3CCC[C@H]3C)cc2c1` [Example 115, (2R)-2-methyl-1-{2-[5-(2-methylphenyl)-1-benzofuran-2-yl]ethyl}pyrrolidine] it was 7.48; in that of `Cc1cccc(-c2ccc3oc(CCN4CCC[C@H]4C)cc3c2)c1` [Example 116, (2R)-2-methyl-1-{2-[5-(3-methylphenyl)-1-benzofuran-2-yl]ethyl}pyrrolidine], 7.52; in that of `Cc1ccc(-c2ccc3oc(CCN4CCC[C@H]4C)cc3c2)cc1` [Example 117, (2R)-2-methyl-1-{2-[5-(4-methylphenyl)-1-benzofuran-2-yl]ethyl}pyrrolidine], 6.96. In the case of `COC(=O)c1ccc(-c2ccc3oc(CCN4CCC[C@H]4C)cc3c2)cc1` [Example 118, methyl 4-(2-{2-[(2R)-2-methyl-1-pyrrolidinyl]ethyl}-1-benzofuran-5-yl)benzoate] it was 7.38. Next, `COc1ccccc1-c1ccc2oc(CCN3CCC[C@H]3C)cc2c1` [Example 119, (2R)-1-{2-[5-(2-methoxyphenyl)-1-benzofuran-2-yl]ethyl}-2-methylpyrrolidine]: 7.18.

`COc1cccc(-c2ccc3oc(CCN4CCC[C@H]4C)cc3c2)c1` [Example 120, (2R)-1-{2-[5-(3-methoxyphenyl)-1-benzofuran-2-yl]ethyl}-2-methylpyrrolidine] gave a pKi of 7.64. `C[C@@H]1CCCN1CCc1cc2cc(-c3cccc(F)c3)ccc2o1` [Example 122, (2R)-1-{2-[5-(3-fluorophenyl)-1-benzofuran-2-yl]ethyl}-2-methylpyrrolidine] gave a pKi of 7.77. In the case of `C[C@@H]1CCCN1CCc1cc2cc(-c3ccccc3Cl)ccc2o1` [Example 123, (2R)-1-{2-[5-(2-chlorophenyl)-1-benzofuran-2-yl]ethyl}-2-methylpyrrolidine] it was 7.80; in that of `C[C@@H]1CCCN1CCc1cc2cc(-c3cccc(Cl)c3)ccc2o1` [Example 124, (2R)-1-{2-[5-(3-chlorophenyl)-1-benzofuran-2-yl]ethyl}-2-methylpyrrolidine], 7.47.

For `CC1CCCN1CCc1cc2cc(-c3ccc(Cl)cc3)ccc2o1` (stereo not drawn) [Example 125, 1-{2-[5-(4-chlorophenyl)-benzofuran-2-yl]-ethyl}-2-methylpyrrolidine], the pKi is 7.20. Compound `C[C@@H]1CCCN1CCc1cc2cc(-c3cccc(C(F)(F)F)c3)ccc2o1` [Example 126, (2R)-2-methyl-1-(2-{5-[3-(trifluoromethyl)phenyl]-1-benzofuran-2-yl}ethyl)pyrrolidine] gave a pKi of 7.09. For the compound `C[C@@H]1CCCN1CCc1cc2cc(-c3ccc(C(F)(F)F)cc3)ccc2o1` [Example 127, (2R)-2-methyl-1-(2-{5-[4-(trifluoromethyl)phenyl]-1-benzofuran-2-yl}ethyl)pyrrolidine], the pKi is 6.92.

On to `C[C@@H]1CCCN1CCc1cc2cc(-c3cccc(OC(F)(F)F)c3)ccc2o1` [Example 128, (2R)-2-methyl-1-(2-{5-[3-(trifluoromethoxy)phenyl]-1-benzofuran-2-yl}ethyl)pyrrolidine], for which the pKi was 6.96.

`C[C@@H]1CCCN1CCc1cc2cc(-c3ccc(OC(F)(F)F)cc3)ccc2o1` [Example 129, (2R)-2-methyl-1-(2-{5-[4-(trifluoromethoxy)phenyl]-1-benzofuran-2-yl}ethyl)pyrrolidine] gave a pKi of 6.82.

Turning to `Cc1ccc(-c2ccc3oc(CCN4CCC[C@H]4C)cc3c2)cc1C` [Example 130, (2R)-1-{2-[5-(3,4-dimethylphenyl)-1-benzofuran-2-yl]ethyl}-2-methylpyrrolidine], the negative logarithm of the Ki (pKi) was 7.22.

In the case of `C[C@@H]1CCCN1CCc1cc2cc(-c3cc(Cl)cc(Cl)c3)ccc2o1` [Example 131, (2R)-1-{2-[5-(3,5-dichlorophenyl)-1-benzofuran-2-yl]ethyl}-2-methylpyrrolidine], the pKi was 7.66. `Cc1cc(C)cc(-c2ccc3oc(CCN4CCC[C@H]4C)cc3c2)c1` [Example 132, (2R)-1-{2-[5-(3,5-dimethylphenyl)-1-benzofuran-2-yl]ethyl}-2-methylpyrrolidine] showed a pKi of 7.72. `C[C@@H]1CCCN1CCc1cc2cc(-c3ccc(CO)cc3)ccc2o1` [Example 133, [4-(2-{2-[(2R)-2-methyl-1-pyrrolidinyl]ethyl}-1-benzofuran-5-yl)phenyl]methanol] gave a pKi of 8.19. In the case of `C[C@@H]1CCCN1CCc1cc2cc(-c3cccnc3)ccc2o1` [Example 134, 3-(2-{2-[(2R)-2-methyl-1-pyrrolidinyl]ethyl}-1-benzofuran-5-yl)pyridine] it was 8.49.

In the case of `C[C@@H]1CCCN1CCc1cc2cc(C=Cc3ccc(F)cc3)ccc2o1` [Example 135, (2R)-1-(2-{5-[2-(4-fluorophenyl)vinyl]-1-benzofuran-2-yl}ethyl)-2-methylpyrrolidine], the pKi was 7.51.

Compound `CC(=O)c1cccc(-c2ccc3oc(CCN4CCC[C@H]4C)cc3c2)c1` [Example 136, 1-[3-(2-{2-[(2R)-2-methyl-1-pyrrolidinyl]ethyl}-1-benzofuran-5-yl)phenyl]ethanone] had a pKi of 9.40.

For the compound `CC(O)c1cccc(-c2ccc3oc(CCN4CCC[C@H]4C)cc3c2)c1` (stereo partly drawn) [Example 137, 1-[3-(2-{2-[(2R)-2-methyl-1-pyrrolidinyl]ethyl}-1-benzofuran-5-yl)phenyl]ethanol], the pKi was 8.55. `C[C@@H]1CCCN1CCc1cc2cc(-c3cccc(C(C)(C)O)c3)ccc2o1` [Example 138, 2-[3-(2-{2-[(2R)-2-methyl-1-pyrrolidinyl]ethyl}-1-benzofuran-5-yl)phenyl]-2-propanol]: the pKi was 8.92. Next, `CC(=NO)c1cccc(-c2ccc3oc(CCN4CCC[C@H]4C)cc3c2)c1` [Example 139, 1-[3-(2-{2-[(2R)-2-methyl-1-pyrrolidinyl]ethyl}-1-benzofuran-5-yl)phenyl]ethanone oxime]: 8.51; `CON=C(C)c1cccc(-c2ccc3oc(CCN4CCC[C@H]4C)cc3c2)c1` [Example 140, 1-[3-(2-{2-[(2R)-2-methyl-1-pyrrolidinyl]ethyl}-1-benzofuran-5-yl)phenyl]ethanone O-methyloxime]: 7.68. Next, `CCON=C(C)c1cccc(-c2ccc3oc(CCN4CCC[C@H]4C)cc3c2)c1` [Example 141, 1-[3-(2-{2-[(2R)-2-methyl-1-pyrrolidinyl]ethyl}-1-benzofuran-5-yl)phenyl]ethanone O-ethyloxime]: 7.36; `CC(=NOC(C)(C)C)c1cccc(-c2ccc3oc(CCN4CCC[C@H]4C)cc3c2)c1` [Example 142, 1-[3-(2-{2-[(2R)-2-methyl-1-pyrrolidinyl]ethyl}-1-benzofuran-5-yl)phenyl]ethanone O-(tert-butyl)oxime]: 7.54; `CC(C)CC(=O)c1cccc(-c2ccc3oc(CCN4CCC[C@H]4C)cc3c2)c1` [Example 148, 3-methyl-1-[3-(2-{2-[(2R)-2-methyl-1-pyrrolidinyl]ethyl}-1-benzofuran-5-yl)phenyl]-1-butanone]: 7.72.

In the case of `C[C@@H]1CCCN1CCc1cc2cc(-c3cccc(C=O)c3)ccc2o1` [Example 149, 3-(2-{2-[(2R)-2-methyl-1-pyrrolidinyl]ethyl}-1-benzofuran-5-yl)benzaldehyde], the pKi was 8.48. In the case of `C[C@@H]1CCCN1CCc1cc2cc(-c3cccc(C(=O)c4cccs4)c3)ccc2o1` [Example 150, [3-(2-{2-[(2R)-2-methyl-1-pyrrolidinyl]ethyl}-1-benzofuran-5-yl)phenyl](2-thienyl)methanone] it was 8.44.

In general, pKi refers to the negative decadic logarithm of the Ki, by convention in mol/L.
